We go through 2 molecules from PMC9241057, “Ru(II)arene(N^N bpy/phen)-based RAPTA complexes for in vitro anti-tumour activity in human glioblastoma cancer cell lines and in vivo toxicity studies in a zebrafish model” (RSC Advances, 2022).

The test system of one data set is LN229. Description: MTT cytotoxicity assay, LN229. It is filed as cell-based, human. The note with it: 72 h incubation. How it is done: The cytotoxic activity of prepared RAPTA complexes (4a–4h) was evaluated by following the standard procedure of the MTT experiment against a series of glioblastoma cells (LN 229, T98, U87MG) in triplicate. In order to accomplish this study, cells were maintained for 72 h with complexes of various concentrations ranging from 2–160 μM, taking cisplatin as a typical positive control.[22]
RAPTA complexes were dissolved in 1% DMSO, and 0.9% NaCl aqueous solution was used to dissolve cisplatin. A cell suspension was prepared and the number of cells taken was 2.5 × 10^4 mL^−1. The cells were seeded in 96-well plates (200 μL per well) and allowed 80% confluence prior to treatment. The cells were formerly treated with various concentrations (2.5–160 μM) of complex 4a–h while the control group was treated with PBS […]. After the 72 hours of incubation, 0.5% MTT solution was added to each well (20 μL) and further incubated for 4 hours at […]. The formazan crystals that were formed were dissolved in 150 μL DMSO and then the OD was measured by a microplate reader at 540 nm. The % growth inhibition of the control and treated cells were calculated and represented as the growth inhibition percentage as explained below.% growth inhibition = 100 − [(AD × 100)/AB]where AD is the absorbance measured in wells containing the treated and control samples and AB is the measured absorbance for the wells with media and a vehicle that served as the blank. IC50 was calculated using Graphpad Prism (version 6.0) where % cell viability was plotted against drug concentration.
(In general: Formazan colour is commonly taken as a measure of viable cells.)

The next data set is described as follows: Conductivity measurement. The conditions noted are these: 3 x 10^-5 M; for Conductivity (ΛM) 10% aq DMSO: in 10% aq DMSO; for Conductivity (ΛM) DMSO: in DMSO. It is filed as physicochemical. An excerpt:
concentrations gradually.
Origin Lab, version 8.5 was
equation (v) given below: […]
Conductivity measurement 7
complexes with DMSO and aqueous DMSO.
followed the previously described procedure. An orbital shaker was used to shake a known
Different ratios (0.5:1, 1:1,
saturated n-octanol to get the partition coefficient. The absorbance of aliquots of the aqueous

In the next data set the test system is Ct-DNA. Put plainly: Viscosity measurement with Ct-DNA. It is filed as binding, calf. The conditions noted are these: with respect to EtBr. How it is done: The hydrodynamic study of the viscosity was conducted to screen the binding nature of the designated complexes 4c and 4d with Ct-DNA.
with respect to cisplatin.
UV–Visible, fluorescence spectroscopies and cyclic voltammetry, J. Photochem.
2. M. Shamsi-Sani, F. Hirini, SM. Abedini, M. Seddighi, Synthesis of benzimidazole
dipyridoquinoxaline and dipyridophenazine ligands as photosensitizing antennae:
curvature in Stern-Volmer plots, J. Am. Chem. Soc., 1983, 105, 1494–1498. (b) B.
hypoxia active, GSH-resistant cancer cytoselective and mitochondria-targeting
cancer stem cell therapeutic agents. Dalton Trans., 2022, 51, 5494-5514.
derivative with bovine serum albumin, J. Pharm. Anal., 2016, 6, 56–63.
6. K. Jeyalakshmi, J. Haribabu, C. Balachandran, S. Swaminathan, N. S. P.

For another data set, the system named is T98G cell line. Description: Time-dependent ROS generation study, DCFH-DA staining. The data set is classed as cell-based, human. The note with it: 20 μM, 2, 6 and 10 h. The procedure: The oxidative stress was measured by the level of intracellular ROS via 2′,7′-dichlorodihydrofluorescein diacetate (DCFH-DA) staining.[24] […] Herein, cells were treated with complexes 4c and 4d with a concentration of 20 μM for 2, 6 and 10 h. We observed a higher level of […] fluorescence with the increase in the incubation time because of ROS generation (Fig. 6).
Fig. 7 Graphical representation of the average DCF fluorescence intensity in the T98G cell line upon treatment with cisplatin and complexes 4c and 4d. Incubation time: 2 h, 6 h and 10 h.
Brain cancer cells were stained with 2′,7′-dichlorofluorescein diacetate (DCFDA) to measure the reactive oxygen species (ROS) and subsequent oxidative stress generated from RAPTA complexes. They were restained by the […] fluorescence intensity generated from oxidized DCFDA. The cancer cells were cultured in a 24-well plate till 70% confluency and treatment was carried out with the aforesaid complex for 24 hours. The ROS generation mediated by the complex was evaluated using DCFDA-2′,7′-dichlorofluorescein diacetate (25 μM) staining for 30 min. The cells were washed with PBS, followed by fresh media replenishment. The images were captured under the EVOS M5000 fluorescent live cell imager (Thermo Fisher Scientific, USA).

A further data set concerns VEGF. Put plainly: VEGF Elisa test. It is filed as cell-based, human. The note with it: U87MG and T98G, 1 to 20 μM. An excerpt: The vascular endothelial growth factor (VEGF), formerly known as the vascular permeability factor (VPF) is a signal protein produced by many cells, which stimulates blood vessel formation. In hypoxic conditions when blood circulation is insufficient in the cells, VEGF restores the oxygen supply to tissues.[26] Proper blood supply is required for solid tumour proliferation beyond a limited size; therefore, cancers that can express VEGF are able to grow and metastasize. Two cancer cells, i.e. U87MG and T98G were incubated with increased concentrations (1 to 20 μM) of 4c and 4d and the % of inhibition of VEGF was estimated by an ELISA reader.
The capture antibody was diluted to the working concentration in PBS without the carrier protein for coating the 96-well plate. The plate was sealed and incubated overnight at room temperature. It was then aspirated and washed three times with wash buffer and blocked by adding 300 μL of reagent diluent to each well and then incubating at room temperature for a minimum of 1 h. This aspiration was repeated again and then the plate was ready for sample addition.
The cells (U87MG and T98G) were treated for 48 h and the supernatants were collected; 100 μL of these samples were added per well and incubated for 2 h at room temperature. […] The optical density of each well was measured immediately by an Elisa reader (λexc = 450 nm).

The IC50 is the concentration needed to halve the response being measured. With `C1N2CN3CN1CP(C2)C3.Cc1ccc(C(C)C)cc1.F[P-](F)(F)(F)(F)F.F[P-](F)(F)(F)(F)F.[Ru+2].c1ccc(-c2ccnc3c2ccc2c(-c4ccccc4)ccnc23)cc1` [4d, [(η^6-p-Cymene)Ru^II(κ^2-N,N-4,7diphenylphenanthroline)(PTA)]·2PF6], the half-inhibitory concentration (IC50) in the data set on LN229 was 960 ± 20 nM. Moreover, in “Conductivity measurement”, the “Conductivity (ΛM) 10% aq DMSO” value came to 77 S cm2 mol-1 and the “Conductivity (ΛM) DMSO” value was 74 S cm2 mol-1. Moreover, in the data set with Ct-DNA, the “relative viscosity of Ct-DNA on increasing complex concentration” value is listed as “steady escalation in the relative viscosity”. The “average DCF fluorescence intensity (intracellular ROS)” value in the data set on T98G cell line is recorded as “gradual increase with respect to the incubation time”. In the data set with VEGF, the “VEGF concentration with the increase in complex concentration” value is “constant decrease”.

Turning to `C1N2CN3CN1CP(C2)C3.Cc1ccc(C(C)C)cc1.Cc1ccnc2c1ccc1c(C)ccnc12.F[P-](F)(F)(F)(F)F.F[P-](F)(F)(F)(F)F.[Ru+2]` [4c, [(η^6-p-Cymene)Ru^II(κ^2-N,N-4,7dimethylphenanthroline)(PTA)]·2PF6], the IC50 in the data set with LN229 is 880 ± 20 nM. For the same molecule, in the data set “Conductivity measurement”, the “Conductivity (ΛM) 10% aq DMSO” value is recorded as 78 S cm2 mol-1 and the “Conductivity (ΛM) DMSO” value is on record as 76 S cm2 mol-1. The “relative viscosity of Ct-DNA on increasing complex concentration” value in the data set on Ct-DNA is on record as “abrupt increase in viscosity up to ri = 2”. The “average DCF fluorescence intensity (intracellular ROS)” value with T98G cell line is reported as “gradual increase with respect to the incubation time”. The “VEGF concentration with the increase in complex concentration” value in the data set with VEGF is “constant decrease”.
